In US20110251211A9, “METHODS OF USING SUBSTITUTED ISOXAZOLO PYRIDINONES AS DISSOCIATED GLUCOCORTICOIDS” (priority 2009, published 2011):

Legend:
Assay type in all cases: cell-based
GR [1] = molecular target: T1, GR (Homo sapiens, UniProt P04150); assay: GR transactivation on MMTV in AD293 cells (pHHLuc dual-luciferase reporter); conditions: FIG. 5
T1 construct: expressed in transfected cells; host or cells: AD293 cells
T1 sequence (P04150 1-777): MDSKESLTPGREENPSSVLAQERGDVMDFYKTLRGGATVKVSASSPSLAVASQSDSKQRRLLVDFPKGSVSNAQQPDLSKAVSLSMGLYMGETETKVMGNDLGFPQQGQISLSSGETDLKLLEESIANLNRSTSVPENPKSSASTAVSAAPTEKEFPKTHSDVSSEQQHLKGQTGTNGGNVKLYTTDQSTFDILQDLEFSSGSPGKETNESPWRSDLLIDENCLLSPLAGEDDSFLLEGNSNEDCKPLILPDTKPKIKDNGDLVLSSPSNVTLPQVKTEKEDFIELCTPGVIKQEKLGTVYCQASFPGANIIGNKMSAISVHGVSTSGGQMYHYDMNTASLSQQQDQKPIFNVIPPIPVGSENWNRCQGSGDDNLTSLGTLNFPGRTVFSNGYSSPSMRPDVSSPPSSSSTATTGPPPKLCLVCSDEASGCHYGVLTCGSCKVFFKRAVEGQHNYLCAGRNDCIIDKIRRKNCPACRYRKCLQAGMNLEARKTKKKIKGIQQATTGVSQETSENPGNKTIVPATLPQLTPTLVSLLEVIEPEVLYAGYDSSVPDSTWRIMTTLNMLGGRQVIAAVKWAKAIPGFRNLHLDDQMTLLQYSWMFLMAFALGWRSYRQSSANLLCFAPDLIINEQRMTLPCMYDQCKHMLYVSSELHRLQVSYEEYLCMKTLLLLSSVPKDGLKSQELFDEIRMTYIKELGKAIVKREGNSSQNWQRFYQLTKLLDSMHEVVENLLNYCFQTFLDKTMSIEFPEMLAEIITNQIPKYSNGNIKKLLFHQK
Method: GR Transactivation on MMTV in∘AD293 Cells Transfected with 0.5 ng GR
AD293 cells were transfected with 0.5 ng GR, 100 ng pHHLuc reporter together with 5 ng Renilla control plasmids, then induced by EtOH (vehicle control), Dexamethasone (10 nM), Compound #53 (5 μM), AL438 (1 μM) and DMSO (vehicle control). Dual-Luciferase values were measured by Promega standard manual, Compound #53's transactivation activity on MMTV in AD293 cells is shown in FIG. 5.

GR [2] = molecular target: T1, GR; assay: GR transrepression of AP1 in AD293 cells (AP1-Luc dual-luciferase reporter)
Method: FIG. 9 is a bar graph showing the dose-response of Compound #53 on GR transrepression of AP1 in AD293 cells.
GR Transrepression of AP1 in AD293 Cells Transfected with 10 ng GR
AD293 cells were transfected with 10 ng GR, 100 ng AP1-Luc reporter together with 5 ng Renilla control plasmids, then induced by EtOH (vehicle control), Dexamethasone (10 nM), Compound #53 (5 μM), AL438 (1 μM). Dual-Luciferase values were measured by Promega standard manual.
GR Transpression of AP 1 in AD293 Cells Transfected with 50 ng GR
AD293 cells were transfected with 50 ng GR, 100 ng AP1-Luc reporter together with 5 ng Renilla control plasmids, then induced by PMA+EtOH (vehicle control), PMA+Dexamethasone (10 nM), PMA+Compound #53 (5 μM). Dual-Luciferase values were measured by Promega standard manual.

GR [3] = molecular target: T1, GR; assay: GR transrepression of NF-kB in AD293 cells (pNF-kB-Luc dual-luciferase reporter)
Method: FIG. 10 is a bar graph showing the dose-response of Compound #53 on GR transrepression of NF-kB in AD293 cells.
GR Transrepression of NF-kB in AD293 Cells Transfected with 100 ng GR
[…] Dual-Luciferase values were measured by Promega standard manual.

[4] = dose-response repression experiments

CN(C)Cc1ccc(-c2cc3onc(-c4ccccc4)c3c(=O)n2C)cc1 [Compound #53, 6-(4-((dimethylamino)methyl)phenyl)-5-methyl-3-phenylisoxazolo[4,5-c]pyridin-4(5H)-one]
GR transactivation activity (GR [1]): minimal GR transactivation activity | GR transrepression activity on AP1 compared with currently used GR ligands (GR [2]; FIGS. 6-7): stronger GR transrepression activity than currently used GR ligands | fold repression for AP1 (GR [2]; at 50 μM, dose-response, FIG. 9): about 2000 | AP-1 activity on the reporter (GR [2]; [4]): almost zero | GR transrepression activity on NF-kB compared with currently used GR ligands (GR [3]; FIG. 8): stronger GR transrepression activity than currently used GR ligands | fold repression of NF-kB (GR [3]; at 50 μM, dose-response, FIG. 10): about 1000 | NF-kB activity on the reporter (GR [3]; [4]): almost zero
